Data set [1] deals with K562 xenograft. The data set can be described thus: Subcutaneous K562 xenograft model of human CML.
The test system of a further data set is K562 cells. The data set can be described thus: Cellular antiproliferation assay (CCK-8), K562. To be noted: Homo sapiens, read-out: Antiproliferation IC50, K562. In kind it is cell-based.
The subject of a further data set is K562R (Q252H) cells. Nature of the data set: Cellular antiproliferation assay (CCK-8), imatinib-resistant K562R (Q252H). Type of data set: cell-based. Conditions: Homo sapiens, K-562R, read-out: Antiproliferation IC50, K562R (Q252H).
Another data set deals with MOLT-4 cells. The data set can be described thus: Cellular antiproliferation assay (CCK-8), MOLT-4. In kind it is cell-based. Conditions: Homo sapiens, read-out: Antiproliferation IC50, MOLT-4.
The subject of a further data set is U937 cells. The data set can be described thus: Cellular antiproliferation assay (CCK-8), U937. In kind it is cell-based. To be noted: Homo sapiens, read-out: Antiproliferation IC50, U937.
For another data set, the target named is Bcr-Abl^WT (Homo sapiens, UniProt P00519). Type of data set: biochemical.
Sequence of Bcr-Abl^WT (P00519 27-1130): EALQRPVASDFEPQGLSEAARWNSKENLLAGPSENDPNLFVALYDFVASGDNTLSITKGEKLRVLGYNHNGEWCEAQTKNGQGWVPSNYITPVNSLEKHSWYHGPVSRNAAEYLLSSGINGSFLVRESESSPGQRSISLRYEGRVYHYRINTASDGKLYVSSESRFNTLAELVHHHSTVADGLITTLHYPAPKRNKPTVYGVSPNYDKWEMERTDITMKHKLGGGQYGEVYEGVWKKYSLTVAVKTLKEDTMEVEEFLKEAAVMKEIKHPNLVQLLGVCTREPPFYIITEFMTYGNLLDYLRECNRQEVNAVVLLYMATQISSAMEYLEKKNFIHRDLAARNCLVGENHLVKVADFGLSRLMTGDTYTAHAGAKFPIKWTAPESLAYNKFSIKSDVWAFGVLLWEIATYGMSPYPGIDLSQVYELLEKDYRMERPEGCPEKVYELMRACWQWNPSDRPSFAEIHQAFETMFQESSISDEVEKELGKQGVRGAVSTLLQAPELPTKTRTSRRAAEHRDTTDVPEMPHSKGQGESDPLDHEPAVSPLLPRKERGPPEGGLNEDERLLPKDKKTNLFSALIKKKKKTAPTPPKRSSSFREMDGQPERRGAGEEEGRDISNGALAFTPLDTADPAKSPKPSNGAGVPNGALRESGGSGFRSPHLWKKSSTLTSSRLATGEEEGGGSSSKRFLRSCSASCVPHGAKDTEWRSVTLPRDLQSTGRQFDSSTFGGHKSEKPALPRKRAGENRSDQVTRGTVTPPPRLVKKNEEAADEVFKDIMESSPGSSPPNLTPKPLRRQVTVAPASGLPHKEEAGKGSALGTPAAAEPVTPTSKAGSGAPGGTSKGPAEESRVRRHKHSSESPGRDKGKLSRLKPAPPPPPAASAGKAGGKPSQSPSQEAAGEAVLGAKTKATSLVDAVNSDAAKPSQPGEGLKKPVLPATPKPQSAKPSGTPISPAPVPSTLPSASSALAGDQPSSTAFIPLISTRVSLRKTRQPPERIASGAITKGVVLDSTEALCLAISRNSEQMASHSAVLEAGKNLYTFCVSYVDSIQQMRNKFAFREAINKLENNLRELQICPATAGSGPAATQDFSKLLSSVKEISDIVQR
A further data set has as its system Ba/F3^WT cells. The data set can be described thus: Cellular antiproliferation assay (CCK-8), Ba/F3 expressing Bcr-Abl^WT. Type of data set: cell-based, murine. Conditions: Mus musculus, read-out: Antiproliferation IC50, Ba/F3^WT.
The next data set deals with Ba/F3^T315I cells. Type of data set: cell-based, murine. Conditions: Mus musculus, read-out: Antiproliferation IC50, Ba/F3^T315I.
In data set [2] the test system is activation of Bcr-Abl, Crkl and STAT5 in K562 CML cells. Nature of the data set: Western blot of Bcr-Abl signaling in K562 cells. Type of data set: cell-based, human. Conditions: 4.0 h treatment. The method, then: The Western blot analysis was carried out by following the protocol described previously. Briefly, after the indicated treatment, cell lysates were collected, dissolving cells in 1× SDS sample lysis buffer. After being sonicated and boiled, the supernatant of the cell lysate was used for Western blot analysis. Cell lysates were loaded to 8–12% SDS-PAGE and separated by electrophoresis. Separated proteins were then electrically transferred to a PVDF film. After being blocked with 1× TBS containing 0.1% Tween-20, and 5% nonfat milk, the film was incubated with corresponding primary antibody followed by HRP-conjugated secondary antibody. The protein lanes were visualized using ECL Western Blotting Detection Kit (GE Healthcare, Piscataway, NJ).
Figure 3. […] Cells were treated with GZD856 at the indicated concentrations for 4.0 h, and whole cell lysates were then subjected to Western blot analyses. The results represent three independent experiments.

The test system of data set [3] is K562 xenograft. To be noted: mouse, in vivo, po, 10 mg/kg/day.
For data set [4], the system named is HFL-1 (human embryonic lung fibroblasts). The arrangement: method as in PMID 26940138. Conditions: human embryonic lung fibroblasts ref 26; read-out: Antiproliferative IC50, HFL-1 non-cancer cells; cited from earlier work.

Like-named read-outs stand apart in the source and are kept apart here. A value given as a limit tells only on which side of the number the result lay.

With `Cc1ccc(NC(=O)c2ccc(CN3CCN(C)CC3)cc2)cc1Nc1nccc(-c2cccnc2)n1` [Imatinib, imatinib], the “Antitumor effect on tumor” value in the data set on K562 xenograft [1] (K562 xenograft, oral 50 mg/kg/day) is “only induced tumor stasis”.
Consider `CC(=O)O[C@H]1C(=O)[C@@]2(C)[C@H]([C@H](OC(=O)c3ccccc3)[C@]3(O)C[C@H](OC(=O)[C@H](O)[C@@H](NC(=O)c4ccccc4)c4ccccc4)C(C)=C1C3(C)C)[C@]1(OC(C)=O)CO[C@@H]1C[C@@H]2O` [Taxol], for which the IC50 with K562 cells (K562, CCK-8, 72 h) is 5.1 nM; in the data set with K562R (Q252H) cells (CCK-8, 72 h) it was 7 nM; with MOLT-4 cells (MOLT-4, CCK-8, 72 h, negative for Bcr-Abl expression), 2.7 nM; in the data set on U937 cells (U-937, CCK-8, 72 h, negative for Bcr-Abl expression), 2.3 nM.
As for `Cc1ccc(C(=O)Nc2ccc(CN3CCN(C)CC3)c(C(F)(F)F)c2)cc1C#Cc1cnc2ccnn2c1` [GZD856, 4-Methyl-N-(4-((4-methylpiperazin-1-yl)methyl)-3-(trifluoromethyl)phenyl)-3-(pyrazolo[1,5-a]pyrimidin-6-ylethynyl)benzamide], the IC50 was 19.9 nM on Bcr-Abl^WT; 2.2 nM in the data set with K562 cells (K562, CCK-8, 72 h); 0.64 nM with Ba/F3^WT cells (BaF3, CCK-8, 72 h); 10.8 nM with Ba/F3^T315I cells (BaF3, CCK-8, 72 h); 67 nM in the data set with K562R (Q252H) cells (CCK-8, 72 h); 6780 nM in [4]. In addition, the “Suppression of activation of Bcr-Abl and downstream Crkl and STAT5” value in data set [2] was “efficiently suppressed the activation”. Also, the Tolerability during treatment result with K562 xenograft [3] was “well tolerated with no mortality”. Moreover, in the data set with K562 xenograft [1] (K562 xenograft mice, oral 10 mg/kg/day, during the treatment), the “Body loss relative to vehicle-matched controls” value is on record as less than 5%. Moreover, the “Tumor recurrence after cessation of treatment” value in the data set with K562 xenograft [1] (K562 xenograft, 10 mg/kg/day, 16 days of dosing, following 7 days) is listed as “no sign of tumor recurrence”. Moreover, the “Antitumor effect on tumor” value with K562 xenograft [1] (K562 xenograft, oral 10 mg/kg/day, after 8 days of treatment) is listed as “almost completely eradicated the tumor”.
With `Cc1ccc(C(=O)Nc2ccc(CN3CCN(C)CC3)c(C(F)(F)F)c2)cc1C#Cc1cnc2cccnn12` [Ponatinib, 3-[2-(imidazo[1,2-b]pyridazin-3-yl)ethynyl]-4-methyl-N-{4-[(4-methyl-piperazin-1-yl)methyl]-3-(trifluoromethyl)phenyl}benzamide], the IC50 was determined as 0.5 nM in the data set on K562 cells (K562, 72 h); 7.8 nM with MOLT-4 cells (MOLT-4, 72 h); 1 nM with U937 cells (U-937, 72 h).
In the case of `Cc1cn(-c2cc(NC(=O)c3ccc(C)c(Nc4nccc(-c5cccnc5)n4)c3)cc(C(F)(F)F)c2)cn1` [Nilotinib], the IC50 in the data set on K562 cells (K562, 72 h) was 6.5 nM; with Ba/F3^WT cells (BaF3, 72 h), 22 nM; with Ba/F3^T315I cells (BaF3, 72 h), 1460 nM; with K562R (Q252H) cells (72 h), 350 nM; in the data set with MOLT-4 cells (MOLT-4, 72 h) it was 20400 nM; in the data set on U937 cells (U-937, 72 h), 9520 nM.

Values taken from paper PMC6010122 (Journal of Enzyme Inhibition and Medicinal Chemistry, 2017).
